Reference: patent US20210106547A1, “Managing Cardiovascular Conditions Associated with Kidney Disease” (Emory University, priority 2019, published 2021)
“Also recorded” adds a separate entry of the source.

What was measured:
C57BL/6 wild type mice [1] = assay: Blood pressure by tail cuff method at 8 weeks after the second surgery; format: in vivo, mouse
Description: Systolic blood pressure at 8 weeks after the second surgery.
(§1) Experiment of C57BL/6 wild type mice. Mice underwent 5/6 nephrectomy surgery. Mice were fed 14% protein diet (0 weeks to 2 weeks), 23% protein diet (2 weeks to 6 weeks), and 40% protein diet (6 weeks to 8 weeks). Mice drank 1% NaCl water one week to six weeks after second surgery, and dimethylthiourea (DMTU; UT-A inhibitor) was administered by osmotic mini pump.
(§2) Since an increase in UT-A is associated with an increase in fibrosis proteins in vitro and in vivo, experiments were performed to determine whether inhibition of UT-A could prevent fibrosis in the heart of CKD mice. Mice were randomly divided into four cohorts: sham+vehicle, sham+DMTU, 5/6Nx+vehicle, and 5/6Nx+DMTU. Mini-pumps were used for DMTU administration (100 mg/kgBW/day). The phenotypic characteristics of mice were determined 8 weeks after completing the 5/6Nx (Table 1).

UT-A1 = target: T1, UT-A1 (Homo sapiens, UniProt Q15849); details: cited from earlier work
T1 sequence (Q15849 1-920): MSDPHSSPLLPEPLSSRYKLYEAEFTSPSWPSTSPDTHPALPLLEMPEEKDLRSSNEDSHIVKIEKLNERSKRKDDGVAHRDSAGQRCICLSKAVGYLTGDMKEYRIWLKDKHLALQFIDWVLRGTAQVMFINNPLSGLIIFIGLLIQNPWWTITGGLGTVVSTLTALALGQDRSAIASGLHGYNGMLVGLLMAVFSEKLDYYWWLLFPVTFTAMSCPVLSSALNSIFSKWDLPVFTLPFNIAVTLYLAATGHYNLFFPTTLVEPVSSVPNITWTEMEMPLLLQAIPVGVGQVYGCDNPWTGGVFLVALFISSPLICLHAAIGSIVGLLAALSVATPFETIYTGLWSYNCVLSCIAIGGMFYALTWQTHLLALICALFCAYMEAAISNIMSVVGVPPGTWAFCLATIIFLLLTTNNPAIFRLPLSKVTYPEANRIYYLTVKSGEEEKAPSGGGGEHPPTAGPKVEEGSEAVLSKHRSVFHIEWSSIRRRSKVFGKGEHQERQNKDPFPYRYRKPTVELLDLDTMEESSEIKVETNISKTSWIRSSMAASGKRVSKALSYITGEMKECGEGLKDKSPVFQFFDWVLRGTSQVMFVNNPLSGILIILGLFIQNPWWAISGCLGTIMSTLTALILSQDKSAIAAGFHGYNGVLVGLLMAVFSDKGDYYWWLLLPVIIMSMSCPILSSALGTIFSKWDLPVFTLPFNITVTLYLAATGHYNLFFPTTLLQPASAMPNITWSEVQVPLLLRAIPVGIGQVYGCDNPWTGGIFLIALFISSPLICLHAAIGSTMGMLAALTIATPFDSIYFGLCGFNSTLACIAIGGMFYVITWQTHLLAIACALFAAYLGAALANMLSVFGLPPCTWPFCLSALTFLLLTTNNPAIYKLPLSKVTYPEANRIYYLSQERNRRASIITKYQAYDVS

C57BL/6 wild type mice [2] = assay: Immunohistochemistry staining of heart for collagen type 1 and α-SMA; format: in vivo, mouse; details: 5/6Nx + DMTU compared with 5/6Nx + vehicle
Description: as §1, §2

C57BL/6 wild type mice [3] = assay: Masson's Trichrome staining of mouse heart tissues, fibrosis area; format: in vivo; details: 5/6Nx + DMTU, 5/6Nx+vehicle 1.04±0.15
Description: Pictures were observed by ×200 magnification. Scale bar is 100 μm. Dark color indicated fibrosis in Masson's staining.
as §1, §2

C57BL/6 wild type mice [4] = assay: Heart size and heart weight at sacrifice (cardiac hypertrophy); format: in vivo, mouse
Description: White bar is vehicle and black bar is DMTU treatment.
as §1, §2
Inhibition of UT-A suppressed CKD-induced increases in SBP in 5/6Nx mice (5/6Nx+DMTU: 119±3 mmHg vs 5/6Nx+vehicle: 130±2 mmHg, P<0.05) (FIG. 3A). […] DMTU suppressed the CKD-induced increase in heart weight (5/6Nx+DMTU: 3.74±0.12 mg/g vs 5/6Nx+vehicle: 4.50±0.09 mg/g, P<0.001) (FIG. 3D). Since the BW could be altered by either edema (in CKD) or dehydration (by DMTU), dry brain weight was also used to normalize heart weight.

C57BL/6 wild type mice [5] = assay: Phenotypic characteristics of sham and 5/6Nx mice 8 weeks after 5/6 nephrectomy, DMTU by osmotic mini pump; format: in vivo, mouse; details: for 24 hr intake volume/BW / 24 hr urine osmolality / 24 hr urine volume/BW / BUN / Plasma osmolality / Urine urea / Volume in-out balance/BW: 8 weeks
Description: as §1, §2

C57BL/6 wild type mice [6] = assay: Quantitative mRNA expression in mouse hearts by real-time PCR; format: in vivo
Description: FIG. 4E show quantitative mRNA expression in mouse hearts performed by real-time PCR. Individual gene expression was calculated by ΔΔcq and standardized by housekeeping gene 18s.
Angiotensin converting enzyme (ACE) gene expression was calculated by ΔΔcq and standardized by housekeeping gene 18s.
as §1
Since an increase in UT-A is associated with an increase in fibrosis proteins in vitro and in vivo, experiments were performed to determine whether inhibition of UT-A could prevent fibrosis in the heart of CKD mice. […] The phenotypic characteristics of mice were determined 8 weeks after completing the 5/6Nx (Table 1).
In uremic cardiomyopathy, increased cardiac fibrosis and hypertrophy are associated with upregulation of the renin-angiotensin system (RAS). To identify whether the ability of UT-A to reduce cardiac fibrosis is related to the RAS, the mRNA expression of angiotensin converting enzyme (ACE) was measured in the heart of 4 groups of mice.

UT-B = target: T2, UT-B (Homo sapiens, UniProt Q13336); details: cited from earlier work
T2 sequence (Q13336 1-389): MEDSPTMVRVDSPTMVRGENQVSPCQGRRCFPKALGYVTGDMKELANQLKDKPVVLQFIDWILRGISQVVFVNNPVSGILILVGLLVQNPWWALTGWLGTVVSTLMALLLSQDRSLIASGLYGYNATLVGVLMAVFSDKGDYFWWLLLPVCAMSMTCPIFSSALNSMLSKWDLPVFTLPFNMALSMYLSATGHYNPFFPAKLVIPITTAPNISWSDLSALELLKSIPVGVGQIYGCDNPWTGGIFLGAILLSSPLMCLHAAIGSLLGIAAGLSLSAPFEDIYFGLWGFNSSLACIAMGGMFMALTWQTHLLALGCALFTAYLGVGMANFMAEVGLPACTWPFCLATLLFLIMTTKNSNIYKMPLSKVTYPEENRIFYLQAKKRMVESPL

C57BL/6 wild type mice [7] = assay: Cardiac echocardiographic analysis of mice after 5/6 nephrectomy and DMTU treatment; format: in vivo, mouse; details: for LVEDV: LV end-diastolic volume; for LVESD: LV end-systolic dimension; for LVESV: LV end-systolic volume; for FS: fractional shortening; for IVSd / IVSs: intraventricular septum; for PWd / PWs: posterior wall thickness; for LVMI: ratio of LVM to BW
Description: as §1, §2
Both intraventricular septum (IVS) and posterior wall thicknesses (PW) were greatest in 5/6Nx+vehicle than all other three groups (Table 2).

Rats = details: cited from earlier work

Compound: CNC(=S)NC [DMTU, N,N′-dimethylthiourea]
- SBP (systolic blood pressure) (C57BL/6 wild type mice [1]; 5/6Nx + DMTU, 8 weeks, vs 5/6Nx+vehicle 130±2, P<0.05): 119±3 mmHg
- Effect on DBP (diastolic blood pressure) (C57BL/6 wild type mice [1]; sham or 5/6Nx mice): did not affect DBP
- Inhibition of UT-A1 (UT-A1): inhibits
- Collagen type I and α-smooth muscle actin (SMA) proteins in heart (C57BL/6 wild type mice [2]): less
- Percentage of fibrosis area in heart (C57BL/6 wild type mice [3]): 0.57±0.07%
- Ratio of heart weight to dry brain weight (C57BL/6 wild type mice [4]; 5/6Nx + DMTU, vs 5/6Nx+vehicle 1.34±0.09, P<0.01): 1.04 ± 0.04 mg/mg
- Ratio of heart weight/body weight (BW) (C57BL/6 wild type mice [4]; 5/6Nx + DMTU, vs 5/6Nx+vehicle 4.50±0.09, P<0.001): 3.74 ± 0.12 mg/g
- CKD-induced increase in heart size (C57BL/6 wild type mice [4]; 5/6Nx mice, at sacrifice): suppressed the CKD-induced increase in heart size
- Volume in-out balance relative to 5/6Nx+vehicle (C57BL/6 wild type mice [5]; 5/6Nx + DMTU): the balance was less
- 24 hr intake volume/BW (C57BL/6 wild type mice [5]; 5/6Nx + DMTU): 0.265 ± 0.028 mL/g
- 24 hr urine osmolality (C57BL/6 wild type mice [5]; 5/6Nx + DMTU): 1206 ± 116 mOsmol/kg H2O
- 24 hr urine volume/BW (C57BL/6 wild type mice [5]; 5/6Nx + DMTU): 0.170 ± 0.013 mL/g
- BUN (C57BL/6 wild type mice [5]; 5/6Nx + DMTU): 63.7 ± 4.6 mg/dL
- Plasma osmolality (C57BL/6 wild type mice [5]; 5/6Nx + DMTU): 329 ± 3 mOsmol/kg H2O
- Urine urea (C57BL/6 wild type mice [5]; 5/6Nx + DMTU): 926 ± 95 mmol/L
- Volume in-out balance/BW (C57BL/6 wild type mice [5]; 5/6Nx + DMTU): 0.114 ± 0.014 mL/g
- Increase of urine volume and decrease of urine osmolality (C57BL/6 wild type mice [5]; CKD mice): absent
- BUN values with DMTU treatment vs. vehicle treatment (C57BL/6 wild type mice [5]; either sham or CKD mice): no significant difference
- 24 hr intake volume/BW (C57BL/6 wild type mice [5]; sham + DMTU): 0.129 ± 0.006 mL/g
- 24 hr urine osmolality (C57BL/6 wild type mice [5]; sham + DMTU): 2378 ± 133 mOsmol/kg H2O
- 24 hr urine volume/BW (C57BL/6 wild type mice [5]; sham + DMTU): 0.058 ± 0.010 mL/g
- BUN (C57BL/6 wild type mice [5]; sham + DMTU): 31.3 ± 2.8 mg/dL
- Plasma osmolality (C57BL/6 wild type mice [5]; sham + DMTU): 322 ± 1 mOsmol/kg H2O
- Urine urea (C57BL/6 wild type mice [5]; sham + DMTU): 1555 ± 128 mmol/L
- Volume in-out balance/BW (C57BL/6 wild type mice [5]; sham + DMTU): 0.081 ± 0.010 mL/g
- Effect on urine osmolality (C57BL/6 wild type mice [5]; sham mice): decreased urine osmolality
- Effect on urine volume (C57BL/6 wild type mice [5]; sham mice): increased urine volume
- mRNA expression of fibrosis related genes (collagen 1A1, collagen 4A1, fibronectin and α-SMA) in heart (C57BL/6 wild type mice [6]; 5/6Nx + DMTU compared with 5/6Nx + vehicle): less than 5/6Nx+vehicle mice
- mRNA expression of angiotensin converting enzyme (ACE) in heart (C57BL/6 wild type mice [6]; sham and 5/6Nx groups, DMTU vs vehicle): significantly abolished ACE expression; also recorded: suppressed an increase in ACE mRNA expression
- Inhibition of UT-B (UT-B): inhibits
- CKD-induced increases of LVESD, LVEDV, LVESV and LVMI (C57BL/6 wild type mice [7]; 5/6Nx + DMTU): eliminated these increases
- LVEDD (C57BL/6 wild type mice [7]; 5/6Nx + DMTU): 3.43 ± 0.06 mm
- LVM (C57BL/6 wild type mice [7]; 5/6Nx + DMTU): 89 ± 3 mg
- LVEDV (C57BL/6 wild type mice [7]; 5/6Nx + DMTU): 62.6 ± 0.3 µL
- LVESD (C57BL/6 wild type mice [7]; 5/6Nx + DMTU): 2.77 ± 0.02 mm
- LVESV (C57BL/6 wild type mice [7]; 5/6Nx + DMTU): 23.6 ± 0.3 µL
- FS (C57BL/6 wild type mice [7]; 5/6Nx + DMTU): 30 ± 0.5 %
- IVSd (C57BL/6 wild type mice [7]; 5/6Nx + DMTU): 0.49 ± 0.01 mm
- IVSs (C57BL/6 wild type mice [7]; 5/6Nx + DMTU): 1.08 ± 0.00 mm
- PWd (C57BL/6 wild type mice [7]; 5/6Nx + DMTU): 0.55 ± 0.01 mm
- PWs (C57BL/6 wild type mice [7]; 5/6Nx + DMTU): 0.52 ± 0.01 mm
- LVMI (C57BL/6 wild type mice [7]; 5/6Nx + DMTU): 3.44 ± 0.13 mg/g
- Percentage of fractional shortening (FS), effect (C57BL/6 wild type mice [7]; CKD heart): restored FS to the normal range
- Pericardial effusion (C57BL/6 wild type mice [7]; mice of the cohorts other than 5/6Nx+vehicle (incl. sham+DMTU, 5/6Nx+DMTU)): none of the mice
- LVEDD (C57BL/6 wild type mice [7]; sham + DMTU): 3.80 ± 0.18 mm
- LVM (C57BL/6 wild type mice [7]; sham + DMTU): 97 ± 7 mg
- LVEDV (C57BL/6 wild type mice [7]; sham + DMTU): 57.3 ± 1.8 µL
- LVESD (C57BL/6 wild type mice [7]; sham + DMTU): 2.45 ± 0.14 mm
- LVESV (C57BL/6 wild type mice [7]; sham + DMTU): 21.8 ± 1.1 µL
- FS (C57BL/6 wild type mice [7]; sham + DMTU): 33 ± 0.5%
- IVSd (C57BL/6 wild type mice [7]; sham + DMTU): 0.44 ± 0.00 mm
- IVSs (C57BL/6 wild type mice [7]; sham + DMTU): 1.05 ± 0.00 mm
- PWd (C57BL/6 wild type mice [7]; sham + DMTU): 0.53 ± 0.00 mm
- PWs (C57BL/6 wild type mice [7]; sham + DMTU): 0.52 ± 0.03 mm
- LVMI (C57BL/6 wild type mice [7]; sham + DMTU): 3.73 ± 0.15 mg/g
- Diuresis compared with furosemide (Rats): greater diuresis
- Side effects like hyponatremia or hypokalemia (Rats): did not show side effects
